Source: patent publication US12410231B2, “Natural killer cell products and methods” (Board of Regents of The University of Texas System, priority 2018, dated 2025)

Tests used:
[1] = healthy volunteers; cited from earlier work
[2] = tested on: DNAM1, NKP30, NKP44, NKP46, NKG2D, CD16, Fas, FasL; test: Immunophenotype of transduced NK cells (NK receptors, multiparameter flow cytometry); type: cell-based, human; details: rimiducid administration; data not shown
Source text: FIGS. 18A-18E Phenotype of iMC transduced NK cells. […] MFI or the percentages of positive cells were normalized according the average value of non-transduced NK cells. […] Two-way ANOVAs were used to compare groups. P<0.0001. […] Transgene expression as indicated by CD19 positive percentage. Representative flow plots are shown in FIG. 18D and dot plots for N=4 in FIG. 18E. Paired t tests were used to compare groups. **p<0.01.
Transduced NKs or T cells were stained with anti-CD56-APCcy7 (NK) or anti-CD3-Percep.Cy5 (T) and anti-CD19-BV421 for iMC or iRC9 transgene expression. For CAR-transduced cells, anti-CD34 QBEnd-10-PE (Abnova) was used to determine transduction efficiency. […] All antibodies were purchased from Biolegend except otherwise stated. Flow cytometry was performed using NovoCyte flow cytometer and the data were analyzed using ACEA NovoExpress software (ACEA Biosciences Inc, San Diego, CA).
NK cell activating receptors are essential for NK cell activation and recognition of targets. Upon infection or malignant transformation, these ligands typically upregulate and activate NK cells for specific attack and elimination of target cells. […]

IFN-γ = IFN-γ ELISA of supernatant, co-culture with k562; type: cell-based, human; details: rimiducid 0-100 nM
transduced NK cells = test: Safety switch activation in NK cells in vitro (Annexin V, 7AAD, CD19 loss); type: cell-based, human; details: 10 nM temsirolimus
Method: (§1) FIGS. 25A-25D: Safety switch in NKs. […] FIG. 25A: Annexin V staining was assessed by flow cytometry analysis. FIG. 25B: Temsirolimus at various concentration was administrated for 24 hrs. 7AAD staining was assessed by flow cytometry. Cells were first gated as CD56+CD19+ for transduced cells, CD56+ for NT non-transduced NK cells. […] 4 Four mice were applied administered 1 mg/kg temsirolimus i.p., whereas 5 mice were administrated with same volume vehicle. Before injection and 24 hrs. later, firefly luciferase BLI was determined for to measure NK presence in vivo (FIG. 25E). Mice were then euthanized. Spleens were analyzed for the presence of NK cells by flow cytometry. NK cells were identified as hCD45+mCD45− populations (FIG. 25F). Transduced NKcells were identified as hCD45+mCD45-hCD56+hCD19+ populations (FIG. 25G). Student t test was used to do comparisonscompare groups. ***P<0.001.
FIG. 14—Caspase-9 activation ablates DS NK cells. NK cells from three separate donors were transduced with recombinant retroviruses 1664 (iMC+iRC9) or 1531 (iC9+iRMC) and expanded. […] After 24 hours NK cells were assayed for presence of the CD19 marker cotransduced with the switches. […] MFI=Mean fluorescence intensity of CD19 in flow cytometry, indicating a proportional growth advantage of highly expressing cells. […]

[3] = tested on: iRC9.IL15.iMC-transduced NKs; test: Safety switch activation in vivo in NSG mice (BLI, spleen flow cytometry); design: species or system mouse
Method: as §1
To prevent potential uncontrolled expansion of the gene modified NK cells, as well as associated cytokine release syndrome (CRS) and GvHD, a suicide gene iRC9 was incorporated into the constructs. […] The suicide gene was also effective in vivo. Mice engrafted with THP-1 tumor received iRC9.IL15.iMC-transduced NKs labeled with oNL […] luciferase. Mice were then either treated with the dimerizer temsirolimus or vehicle control.

| SMILES | safety [1] | surface NK cell receptor expression [2] | IFN-γ production at the co-culture supernatant (IFN-γ) | apoptosis of transduced NK cells (transduced NK cells) | viability of non-transduced NK cells (transduced NK cells) | frequency of gene modified NK cells in the spleens ([3]; temsirolimus treated mice) | BLI signal of NK cells in vivo ([3]; within 24 hrs, temsirolimus 1 mg/kg i.p. vs vehicle) |
| --- | --- | --- | --- | --- | --- | --- | --- |
| CC[C@H](C(=O)N1CCCC[C@H]1C(=O)O[C@H](CCc1ccc(OC)c(OC)c1)c1cccc(OCC(=O)NCCNC(=O)COc2cccc([C@@H](CCc3ccc(OC)c(OC)c3)OC(=O)[C@@H]3CCCCN3C(=O)[C@@H](CC)c3cc(OC)c(OC)c(OC)c3)c2)c1)c1cc(OC)c(OC)c(OC)c1 (relative stereo) [Rimiducid, 2-Piperidinecarboxylic acid, 1-[(2S)-1-oxo-2-(3,4,5-trimethoxyphenyl)butyl]-, 1,2-ethanediyIbis[imino(2-oxo-2,1-ethanediyl)oxy-3,1-phenylene[(1R)-3-(3,4-dimethoxyphenyl)propylidene]] ester, [2S-[1(R*),2R*[S*[S*[1(R*),2R*]]]]]-(9Cl)] | proven safe in healthy volunteers | did not increase surface NK cell receptor expression | dramatically increased IFN-γ production at the co-culture supernatant in a dose-dependent manner |  |  |  |  |
| CO[C@H]1C[C@@H]2CC[C@@H](C)[C@@](O)(O2)C(=O)C(=O)N2CCCC[C@H]2C(=O)O[C@H]([C@H](C)C[C@@H]2CC[C@@H](OC(=O)C(C)(CO)CO)[C@H](OC)C2)CC(=O)[C@H](C)/C=C(\C)[C@@H](O)[C@@H](OC)C(=O)[C@H](C)C[C@H](C)/C=C/C=C/C=C/1C [temsirolimus] |  |  |  | induced apoptosis as early as 4 hrs | no effect | significantly reduced | dramatically reduced |
